From patent US9808444B2 (BioHealthonomics Inc., priority 2012, dated 2017)

What was measured:
[1] = test system: headache / migraine attack; settings: cited from earlier work
migraine attacks [2] = settings: cited from earlier work
migraine headaches = settings: one subject, subcutaneous, Table 5 regimen
migraine attacks [3] = settings: subcutaneous, twice weekly, 1 μg (0.1 mL) increasing to 10 μg (1.0 mL) over 12 weeks; cited from earlier work
migraine attacks [4] = settings: subcutaneous 1-10 ng twice a week vs oral sodium valproate 500 mg daily, cited from earlier work
[5] = doses of 1 to 3 ng twice a week, P<0.0001
[6] = migraine subjects, intravenous, 0.5 mg/kg per minute for 20 min

COc1ccc(CN(CCN(C)C)c2ccccn2)cc1 [mepyramine]
effect of pre-treatment on histamine-induced headache and delayed migraine attack ([1]; pre-treatment before intravenous histamine in migraine subjects): abolished

CNCCc1c[nH]cn1 [N^α-methylhistamine]
adverse side effects (migraine attacks [2]; doses greater than 3 ng): intense headache | duration of migraine attacks (migraine attacks [2]; [5]): significantly reduced | frequency of migraine attacks (migraine attacks [2]; [5]): significantly reduced | intensity of migraine attacks (migraine attacks [2]; [5]): significantly reduced | need for rescue analgesics (migraine attacks [2]; [5]): significantly reduced

NCCc1c[nH]cn1 [histamine, 2-(1H-imidazol-4-yl)ethanamine]
intensity of migraines (migraine headaches): drastically reduced | quality of life (migraine headaches): Drastically improved | side effects associated with the regimen (migraine headaches): no histamine-induced headaches | frequency of migraines after the dosing regimen (migraine headaches; before the regimen about 3-5 migraines per week): ~1 migraine every 2 months | side effect after the infusion [1, 6]: delayed migraine attack | side effect during the infusion [1, 6]: immediate headache | decrease in length of migraine attacks (migraine attacks [3]): 45% | decrease in pain intensity (migraine attacks [3]): 51% | decrease in painkiller use (migraine attacks [3]): 52% | reduction of headache frequency (migraine attacks [3]): 50% | MIDAS versus sodium valproate (migraine attacks [4]): No difference | frequency of attacks versus sodium valproate (migraine attacks [4]): No difference | analgesic intake versus sodium valproate (migraine attacks [4]; weeks 4, 8, 12, P<0.001): significantly greater reduction | intensity of migraine attacks versus sodium valproate (migraine attacks [4]; weeks 4, 8, 12, P<0.001): significantly greater reduction
